Assay: Assays for synthesizing FDS-LNTβNHCbz (48) from S-LNF-IIβNHCbz (37)
Assay type: biochemical
Details: 30° C., analyzed by HRMS at 24 hours and 72 hours
Method: Assays for synthesizing FDS-LNTβNHCbz (48) from S-LNF-IIβNHCbz (37). Assays were carried out at 30° C. in a total volume of 10 μL in Tris-HCl buffer (100 mM, pH 7.5) containing (10 mM), CMP-Neu5Ac (15 mM), MgCl2 (20 mM), MBP-Δ50hST6GALNAC V_ext20-Hiss ([…]), MBP-Δ50hST6GALNAC V_V99M-His6, or MBP-Δ50hST6GALNAC V_V99M_ext20-His6. The reactions were analyzed by HRMS at 24 hours and 72 hours. The formation of FDS-LNTβNHCbz (48) was observed (FIGS. 71A and 71B), and the conversion was around 40-50% after 72 h incubation using MBP-Δ50hST6GALNAC V_ext20-His6.

MBP-Δ50hST6GALNAC V_V99M-His6: V99M mutant of recombinant human ST6GALNAC V with N-terminal MBP and C-terminal His6
formation of FDS-LNTβNHCbz (48): formation of the target product was also observed

Source: US20250163091A1, “FUNCTIONALIZED HUMAN MILK OLIGOSACCHARIDES AND METHODS FOR PRODUCING THEM” (The Regents of the University of California, priority 2022, published 2025)
